According to patent publication US9097702B2, “Pathologically relevant tumor microenvironments for high-throughput drug screening” (Cornell University, priority 2008, dated 2015):

What was measured:
[1] = test system: MDA-MB231 breast cancer cells; assay: MDA-MB231 viability in conventional 2-D culture; type: cell-based, human
Procedure: For the drug testing studies, different doses of two frequently utilized chemotherapeutic drugs were first evaluated with regard to their ability to reduce breast cancer cell viability in conventional 2-D culture.
(§1) Consequently, all subsequent drug testing studies were performed with doxorubicin.

[2] = test system: MDA-MB231 breast cancer cells; assay: Doxorubicin responsiveness in 3-D cultures within RGD-modified alginate gels versus 2-D monolayer; type: cell-based, human; settings: 3-D cultures within RGD-modified alginate gels vs 2-D monolayer (FIG. 5C)
Procedure: To examine tumor malignancy and efficacy of anti-cancer drugs in response to enhanced mechanical stiffness, MDA-MB231 were incorporated in 3-D RGD-modified alginate cultures and were evaluated for proliferation, secretion of a molecular marker of enhanced malignancy (i.e., interleukin-8 (IL-8)), and drug responsiveness.
as §1

Structure (SMILES) | MDA-MB231 viability in 2-D culture ([1]; high doses, 2-D culture (FIG. 5B, left panel)) | number of viable tumor cells in 2-D culture ([1]; 0.5 μM, 2-D culture (FIG. 5B, right panel)) | efficacy of doxorubicin treatment in 3-D relative to 2-D conditions [2]
N.N.[Cl][Pt][Cl] [cisplatin] | did not alter MDA-MB231 viability |  | 
COc1cccc2c1C(=O)c1c(O)c3c(c(O)c1C2=O)C[C@@](O)(C(=O)CO)C[C@@H]3O[C@H]1C[C@H](N)[C@H](O)[C@H](C)O1 [doxorubicin] |  | efficiently reduced the number of viable tumor cells | 3-D micro-environmental conditions dramatically-reduce the efficacy of doxorubicin treatment relative to 2-D conditions
